Source: EP0364584A1, “ANTIDOTE FOR ORGANIC PHOSPHORUS COMPOUND POISONING” (priority 1988, dated 1989)
Read-outs that look alike come from different tables or passages of the source.

Key:
[1] = molecular target: T1, Azetylcholinesterase des menschlichen Bluts (Homo sapiens, UniProt P22303); assay: Reactivation in vitro of erythrocyte cholinesterase inhibited by organophosphorus compounds (potentiometric titration); assay type: biochemical; conditions: reactivator 1.10^-4 M01/1, 25°C, pH 7,5
T1 construct: Cholinesterase des Grundgerüstes der Erythrozyten des menschlichen Bluts; from tissue; host or cells: human erythrocyte stroma (ghosts)

[2] = molecular target: T2, Butyrylcholinesterase des Rattengehirns (Rattus norvegicus, UniProt Q9JKC1); assay: Histochemical study of butyrylcholinesterase activity in rat brain; assay type: in vivo, Ratten
T2 construct: from tissue; host or cells: rat brain sections (glia, capillaries) after in vivo dosing
Text: Nach den histochemischen Methoden wurde der Einfluss des erfindungsgemässen Arzneimittels auf die Aktivität der Azetyl- und Buty rylcholinesterase des Rattengehirns untersucht und es wurde gezeigt, dass dieser von der Dosis des Arzneimittels und der Einführungszeit abhängt. […] Die Fermenthemmung wird bis 2 Stunden lang beobachtet, nachher folgt eine unbedeutende Aktivierung der Azetylcholinesterase, die bis 24 Stunden aufrechterhalten bleibt.
Es muss hervorgehoben werden, dass die beobachteten Veränderungen der Aktivität des Ferments von keinem deutlich ausgeprägten Charakter sind.

[3] = system: Kranken mit akuten peroralen Vergiftungen mit verschiedenen phosphororganischen Insektiziden; assay: Clinical study in patients with acute oral poisoning by organophosphorus insecticides; assay type: in vivo, Menschen
Text: Das erfindungsgemässe Arzneimittel wurde in der Klinik an Kranken mit akuten peroralen Vergiftungen mit verschiedenen phosphororganischen Insektiziden untersucht. Insgesamt wurden 183 Menschen behandelt, die in die Klinik gelangten. Daraus befanden sich 26 Menschen in einer leichten, 48 Kranke - in einer mässigen und 75 Kranke in einer schweren Vergiftungsstufe. Das Alter der Geschädigten schwankte von 15 bis 76 Jahren. Die Zeit des Behandlungsbeginns betrug I bis 12 stunden nach der Einnahme des Insektizids und in 28 Fällen wurde die Behandlung vor der Hospitalisierung begonnen.
Die therapeutische Effektivität des erfindungsgemässen Arzneimittels wurde mit der ähnlichen Wirkung des wirksamsten bekannten Präparats TMB-4 verglichen (insgesamt 50 Menschen) .
Das erfindungsgemässe Arzneimittel wurde in Kombination mit Atropin neben aktiven Methoden der Detoxikation ausgenutzt, die die Giftentfernung aus dem Organismus bezweckten und das Durchwaschen des Magens, die Verordnung von Abführungsmitteln, Siphon- und Abführungsklystieren, die Beschleunigung der Diurese, aktive symptomatische und Erhaltungstherapie, allgemein stärkenden Behandlung, Massnahmen zur Korrektion der Störungen des säurig-alkalischen und wässrigen und Elektrolytzustands einschliessen. […]

T1 sequence (P22303 other isoform, or with tags, fused parts or gaps): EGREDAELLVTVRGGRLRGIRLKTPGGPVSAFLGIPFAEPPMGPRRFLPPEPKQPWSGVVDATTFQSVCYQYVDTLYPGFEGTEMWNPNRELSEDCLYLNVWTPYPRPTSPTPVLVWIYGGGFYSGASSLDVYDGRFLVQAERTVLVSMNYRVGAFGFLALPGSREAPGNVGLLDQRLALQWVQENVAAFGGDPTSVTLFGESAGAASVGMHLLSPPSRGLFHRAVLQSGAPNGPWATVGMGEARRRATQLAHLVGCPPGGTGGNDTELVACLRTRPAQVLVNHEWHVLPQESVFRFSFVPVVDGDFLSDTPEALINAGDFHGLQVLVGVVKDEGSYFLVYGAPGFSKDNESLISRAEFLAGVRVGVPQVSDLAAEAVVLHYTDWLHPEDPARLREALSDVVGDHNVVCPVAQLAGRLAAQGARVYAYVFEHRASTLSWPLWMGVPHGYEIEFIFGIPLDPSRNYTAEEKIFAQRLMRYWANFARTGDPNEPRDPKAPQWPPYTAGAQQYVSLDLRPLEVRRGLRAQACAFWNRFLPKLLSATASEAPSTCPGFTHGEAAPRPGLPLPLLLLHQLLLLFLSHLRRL
T2 sequence (Q9JKC1 24-597): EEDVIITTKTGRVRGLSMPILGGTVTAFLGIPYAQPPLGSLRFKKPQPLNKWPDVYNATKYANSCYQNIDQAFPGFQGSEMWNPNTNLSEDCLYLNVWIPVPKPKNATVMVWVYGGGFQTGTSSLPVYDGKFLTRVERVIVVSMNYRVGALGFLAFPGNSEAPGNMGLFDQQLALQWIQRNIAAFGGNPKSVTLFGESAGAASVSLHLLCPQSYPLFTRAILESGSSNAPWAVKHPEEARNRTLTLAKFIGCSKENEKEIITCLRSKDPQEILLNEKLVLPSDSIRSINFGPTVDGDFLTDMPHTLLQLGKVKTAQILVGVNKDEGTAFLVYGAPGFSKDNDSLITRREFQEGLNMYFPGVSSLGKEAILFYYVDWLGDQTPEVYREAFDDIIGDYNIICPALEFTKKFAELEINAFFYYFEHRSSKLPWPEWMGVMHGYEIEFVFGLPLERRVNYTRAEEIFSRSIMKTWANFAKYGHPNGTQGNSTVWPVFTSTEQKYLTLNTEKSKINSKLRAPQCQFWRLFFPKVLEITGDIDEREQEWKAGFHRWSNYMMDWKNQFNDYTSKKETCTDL

For C=CC[n+]1ccccc1C=NO [das erfindungsgemässe Arzneimittel, N-Allyl-2-pyridinaldoxiinbromid], the activity at 100 µM ([1]; 0.5 h, pH 7, inhibited with O,O-Dimethyl-(2,2,2-trichlor-1-oxyäthyl) phosphonat, 0,5 h, read-out: Aktivität der Azetylcholinesterase in % (Reaktivationszeit in Stunden) 0,5) was 53.6%, the activity at 100 µM ([1]; 0.5 h, pH 7, inhibited with O,O-Dimethyl-S-(1,2-dikarbäthoxyäthyl)-dithiophosphat, 0,5 h, read-out: Aktivität der Azetylcholinesterase in % (Reaktivationszeit in Stunden) 0,5) was 48.1% and the activity at 100 µM ([1]; 1 h, pH 7, inhibited with O,O-Dimethyl-(2,2,2-trichlor-1-oxyäthyl) phosphonat, 1 h, read-out: Aktivität der Azetylcholinesterase in % (Reaktivationszeit in Stunden) 1) was 72.2%. For the same compound, the activity at 100 µM ([1]; 1 h, pH 7, inhibited with O,O-Dimethyl-S-(1,2-dikarbäthoxyäthyl)-dithiophosphat, 1 h, read-out: Aktivität der Azetylcholinesterase in % (Reaktivationszeit in Stunden) 1) was 75%, the activity at 100 µM ([1]; 2 h, pH 7, inhibited with O,O-Dimethyl-(2,2,2-trichlor-1-oxyäthyl) phosphonat, 2 h, read-out: Aktivität der Azetylcholinesterase in % (Reaktivationszeit in Stunden) 2) was 72.3% and the activity at 100 µM ([1]; 2 h, pH 7, inhibited with O,O-Dimethyl-S-(1,2-dikarbäthoxyäthyl)-dithiophosphat, 2 h, read-out: Aktivität der Azetylcholinesterase in % (Reaktivationszeit in Stunden) 2) was 78.1%. For the same compound, the “Aktivität der Butyrylcholinesterase in den Kapillaren aller Bildungen des Gehirns” value ([2]; bis 2 Tage lang, dose dependent, more marked at 50 mg/kg) was “unbedeutende Aktivierung des Ferments”, the “Aktivität der Butyrylcholinesterase in den Nervenkittzellen des Gehirns” value ([2]; in allen untersuchten Konzentrationen) was “die Aktivität der Butyrylcholinesterase in den Nervenkittzellen des Gehirns nicht” and the “Nebenerscheinungen und Kontraindikationen” value ([3]; Einzeldosis 0,075 g, Kurdosis 0,4 bis 1,6 g) was “keine Nebenerscheinungen und Kontraindikationen”. For the same compound, the “Kennziffer der Funktion der Leber und der Stoffwechselprozesse” value ([3]; Eiweissfraktion, Bilirubin, Transaminasenaktivität, Blutzucker, Elektrolyt- und Gaswechsel) was “zu deren Normalisierung beiträgt”.
